# Reference: patent US20200032249A1, “LABELING, ISOLATION, & ANALYSIS OF RNA FROM RARE CELL POPULATIONS” (priority 2017, published 2020)
# How the values were obtained:
# [1] = test system: MDA231 cells expressing CD/UPRT in mouse lungs; assay: signal-to-noise ratio of Flura-tagging and TU-tagging in vivo, lung colonization xenograft, RT-PCR; conditions: 250 mg/kg, 12 h post injection
# Method: FIG. 3 a-g. Flura-tagging of mRNA in vivo. FIG. 3a—Schematic diagram of lung colonization xenograft assay used for evaluation of Flura-tagging/Flura-seq. Athymic mice were injected through the tail vein with 50,000 MDA231 cells expressing CD/UPRT and GFP-luciferase. Upon the development of detectable bioluminescent lung metastases (4 weeks), mice were treated with doxycycline to induce CD/UPRT expression and injected with 5-FC. Lungs were harvested, and Flura-tagged mRNAs were immunopurified. FIG. 3b—Comparison of signal-to-noise ratio of Flura-tagging and TU-tagging in vivo. Mice were injected with either 5-FC or TU, the Flura-tagged or TU-tagged mRNAs were purified 12 h post injection, and the relative fold enrichment of representative human housekeeping genes relative to representative murine housekeeping genes (mHPRT1, mLDH1, mPGK1 and mGAPDH), normalized to their corresponding unpurified inputs, were measured by RT-PCR (n=5, ±S.E.). FIG. 3c—Quantification of the number of human cells in the mouse lungs used for Flura-tagging. Half of the mouse lungs used for Flura-tagging in FIG. 3b was dissociated into single cells, and the number of RFP+ cells was quantified using flow cytometry. The total number of MDA231 cells per lung was estimated based on an assumption of 1.5×10^8 cells per mouse lung (20) (n=5). […] RNA reads were aligned to a hybrid genome containing the human and mouse genomes. […]
# 293T cells = assay: anti-BrdU immunofluorescent staining of 293T cells treated with 5-FC or 5-FU; type: cell-based, human; conditions: untransfected control 293T cells, 250 μM, 24 h
# Method: S. cerevisiae CD was exogenously expressed in human embryonic kidney 293T cells, and the cells were treated with 250 μM fluorocytosine (5-FC). This system is predicted to generate intracellular fluorouracil (5-FU), which is then incorporated into newly synthesized RNAs (FIG. 1a, b). Antibodies against bromodeoxyuridine (BrdU) can recognize BrdU and other halogenated uridines incorporated into nucleic acids (8).
# (§1) Human embryonic kidney transformed with […] (293T) and human breast cancer MDA-MB-231 (MDA231) cells were cultured in DMEM High Glucose medium (Wheaton) supplemented with 10% Fetal Bovine Serum (Clontech, Catalog number 631106) supplemented with 2 mM L-Glutamine. All cell lines have been routinely tested for mycoplasma contamination. For the induction of CD or CD and UPRT, cells were treated with 1 μg/ml doxycycline for 24 h. For Fluorouracil tagging, cells were treated with 250 μM of 5-FC or 5-FU unless indicated. Where indicated, 125 μM thymine was added together with 5-FC. For the formation of stress granules, cells were treated with 500 μM Sodium Arsenite (Santa Cruz Biotechnologies, Catalog number SC-301816).
# Cells were fixed with 4% paraformaldehyde for 10 min, permeabilized with 0.2% TritonX-100 for 10 min, blocked with 5% BSA for one hour at room temperature, prior to incubation with primary antibodies at 4° C. overnight, and secondary antibodies (Thermo Fisher anti-chicken antibody, Catalog number A-11039, Thermo Fisher anti-rat antibody, Catalog number A-11006, Abcam anti-rat antibody, Catalog number ab150117) incubated for 1 h at room temperature. Mouse lungs were fixed in 4% paraformaldehyde overnight at 4° C., embedded in paraffin and sectioned. The lung sections were deparaffinized and stained with hematolxylin/eosin or immunostained using standard protocols. Automated image analysis was performed using the FIJI software package.
# MDA231 cells = assay: stress granule formation by G3BP immunostaining; type: cell-based; conditions: 500 μM sodium arsenite, positive control
# Method: FIG. 2a-b. Flura-tagging has minimal cytotoxicity. FIG. 2a—Effect of Flura-tagging on stress granule formation. MDA231 cells were treated with 5-FC for the indicated times, and the formation of stress granules was detected by G3BP immunostaining. Control cells were either treated with water or sodium arsenite (Arsenite) for one hour. Arrows indicate stress granules (n=3). Scale bar=20 μM. FIG. 2b—Effect of Flura-tagging on transcription. RNA expression in control cells was compared to CD/UPRT-expressing cells treated with the indicated concentrations of 5-FC for 4 h or 12 h. Each dot represents a gene, with the outer/lighter gray dots indicating genes showing more than 2-fold differential expression, as determined by DESeq2 (n=2). The dotted line represents the four-fold cutoff mark.
# 5-FU is extensively used as a chemotherapeutic agent for the treatment of solid tumors, based on its ability to induce cancer cell death by inhibiting thymidylate synthase and by causing DNA and RNA damage (12-14). It was therefore crucial to test whether our 5-FU-tagging method, which is based on low concentrations of 5-FC and short incubation time periods, has significant cytotoxic effects under our experimental conditions. CD/UPRT-expressing cells were treated with 5-FC at concentrations of up to 250 μM for up to 12 h (“Flura-tagged” cells), and the effects of this treatment on RNA damage response and transcriptional regulation were investigated.
# A key feature of the RNA damage response is the formation of stress granules (15). Ras GTPase-activating protein-binding protein 1 (G3BP), a key component of stress granules, forms distinct foci during stress granule formation (12). We determined the dose- and time-dependent effect of 5-FC treatment on stress granule formation by immunostaining of the cells with anti-G3BP antibody. […] The 5-FC-treated cells started to form stress granules only after 24 h of treatment with 1 mM 5-FC, a concentration four times higher than the maximal concentration of 5-FC used for Flura-tagging, or after 48 h of 5-FC treatment at lower concentrations (FIG. 2a).
# as §1, with “For the formation of stress granules, cells were treated with 500 μM Sodium Arsenite (Santa Cruz Biotechnologies, Catalog number SC-301816).” left out
structure (smiles),measurement,setting,value
O=c1cc[nH]c(=S)[nH]1 [thiouracil],enrichment of human mRNAs compared to mouse mRNAs,[1],approximately 10 fold
"O=c1[nH]cc(F)c(=O)[nH]1 [5-FU, 5-fluoro-uracil]",immunostaining with anti-BrdU antibody,293T cells,positive immunostaining
O=[As]O [sodium arsenite],time to formation of distinct G3BP foci,MDA231 cells,≤ 1 h
